Test results from patent publication US4339426A, “Bleomycin analog” (Regents of the University of California, priority 1980, dated 1982).

Assays:
VX2 adenocarcinomas = test: Tumor localization scans in rabbits bearing VX2 adenocarcinomas; format: in vivo, white rabbits; conditions: for concentration of radioactivity in kidneys and bladder: two hours after injection
Procedure: Solutions of the indium-111 chelates of BLEDTA (A) or BLEDTA (B) were injected into the ear veins of white rabbits bearing type VX2 adenocarcinomas implanted under the right foreleg and the right hind leg. Two hours after injection, and again 18 to 24 hours after injection, the rabbits were scanned with a gamma camera, which provides a two-dimensionaldisplay of the distribution of radioactivity in the body. Scans were obtained 24 hours after injection of 700 μCi of ^111 In-BLEDTA(A).

KHJJ tumor = test: Organ distribution and tumor uptake of 111In-BLEDTA(B) in BALB/c mice with KHJJ tumor (Table II); format: in vivo
Procedure: The two bleomycin analogs-BLEDTA(A) and (B)-were rapidly and specifically labelled with ^111 In^3.spsp.+. A small aliquot of a dilute solution (10^-4 M) of BLEDTA(A) and (B) respectively in 0.1 M citrate (pH 2.8) was added to a container of dry ^111 InCl3, and incubated for 5 minutes at room temperature. The solutions were then diluted with normal saline solution for injection.
Following the injection of ^111 In-BLEDTA(B) into the tail veins of specially prepared BALB/c mice, the organ distribution and tumor uptake of radioactivity were determined. A tumor line, "KHJJ", derived from a primary mammary carcinoma arising in a mouse and maintained for over 100 transplant generations was used for the assay. Transplantation was by subcutaneous implantation of tumor fragments about 1 mm in diameter into the flank. The studies were carried out after 14 days of growth, when the tumor had reached a size of about 1 cm^3. On histological examination,the tumor has a "carcinoma-like" pattern with a predominance of islands of round or polygonal malignant cells with little stroma and a generally undifferentiated appearance. After transplantation, the tumor takes in almost all animals and grows without metastasizing or killing the mice within 14 days.
[…] After 18 hours, each mouse was anesthetized with ether, and blood was collected from the jugular vein into two preweighed capillary tubes. The mouse then was killed instantly by cervical dislocation and the major organs excised. Samples of muscle, skin, bone (left femur plus marrow), tail, and tumor also were taken. All tissue samples were weighed immediately after excision and counted in a well-type scintillation counter.

[1] = 24 hours after injection of 700 μCi
[2] = Table II, BLEDTA B 18 hours after tail vein injection

| SMILES | visualization of small tumor 1 cm in diameter under right foreleg (VX2 adenocarcinomas; [1]) | visualization of tumor 2 to 3 cm in diameter under right hind leg (VX2 adenocarcinomas; [1]) | concentration of radioactivity in kidneys and bladder (VX2 adenocarcinomas) | uptake of radioactivity in liver and bone (KHJJ tumor; 18 hours) | Distribution and uptake: Blood (KHJJ tumor; [2]) | Distribution and uptake: Bone (KHJJ tumor; [2]) | Distribution and uptake: Kidneys (KHJJ tumor; [2]) | Distribution and uptake: Liver (KHJJ tumor; [2]) | Distribution and uptake: Lungs (KHJJ tumor; [2]) | Distribution and uptake: Muscle (KHJJ tumor; [2]) | Distribution and uptake: Skin (KHJJ tumor; [2]) | Distribution and uptake: Spleen (KHJJ tumor; [2]) | Distribution and uptake: Tumor (KHJJ tumor; Table II, KHJJ tumor, BLEDTA B 18 hours after tail vein injection) | tumor/organ radioactivity concentration ratios (KHJJ tumor; all organs examined except the kidneys) |
| --- | --- | --- | --- | --- | --- | --- | --- | --- | --- | --- | --- | --- | --- | --- |
| Cc1c(N)nc(C(CC(N)=O)NCC(N)C(N)=O)nc1C(=O)NC(C(=O)NC(C)C(O)C(C)C(=O)NC(C(=O)NCCc1nc(-c2nc(C(=O)NCCC[S+](C)CC(=O)Nc3ccc(C(CN(CC(=O)O)CC(=O)O)N(CC(=O)O)CC(=O)O)cc3)cs2)cs1)C(C)O)C(OC1OC(CO)C(O)C(O)C1OC1OC(CO)C(O)C(OC(N)=O)C1O)c1cnc[nH]1 (stereo not drawn) [BLEDTA(A)] | clearly visualized | strikingly evident | high concentrations of radioactivity in the kidneys and bladder |  |  |  |  |  |  |  |  |  |  |  |
| Cc1c(N)nc(C(CC(N)=O)NCC(N)C(N)=O)nc1C(=O)NC(C(=O)NC(C)C(O)C(C)C(=O)NC(C(=O)NCCc1nc(-c2nc(C(=O)NCCCSCC(=O)Nc3ccc(C(CN(CC(=O)O)CC(=O)O)N(CC(=O)O)CC(=O)O)cc3)cs2)cs1)C(C)O)C(OC1OC(CO)C(O)C(O)C1OC1OC(CO)C(O)C(OC(N)=O)C1O)c1cnc[nH]1 (stereo not drawn) [BLEDTA(B)] |  |  | high concentrations of radioactivity in the kidneys and bladder | quite low | .205 ± .066 % of injected radioactivity pe | .188 ± .080 % of injected radioactivity pe | 1.023 ± .333 % of injected radioactivity pe | .263 ± .068 % of injected radioactivity pe | .254 ± .067 % of injected radioactivity pe | .063 ± .015 % of injected radioactivity pe | .166 ± .052 % of injected radioactivity pe | .327 ± .088 % of injected radioactivity pe | .393 ± .015 % of injected radioactivity pe | Favorable |
